Results taken from patent publication US20090215028A1, “Methods and Compositions for Determining Anti-HIV Drug Susceptibility and Replication Capacity of HIV” (priority 2005, published 2009).

Legend:
Format in all cases: cell-based
[1] = system: HIV isolated from treatment-naïve patients (RHIN segment); assay: Anti-HIV drug susceptibility assay (luciferase test vectors, 293 cells), patient-derived RHIN segment
From the text: (§1) Patient-derived segment(s) corresponding to either the entire pol gene, encoding HIV protease, reverse transcriptase, integrase, and RNAse H (hereinafter “POL”), or the portion of pol encoding amino acids 319-440 of reverse transcriptase, integrase, and RNAse H (hereinafter “RHIN”), were amplified by the reverse transcription-polymerase chain reaction method (RT-PCR) using viral RNA isolated from viral particles present in the plasma or serum of HIV-infected individuals as follows. Virus was pelleted by centrifugation at 20,400×g for 60 min from plasma (typically, 1 ml) prepared from blood samples collected in evacuated tubes containing either EDTA, acid-citrate dextrose, or heparin as an anticoagulant. Virus particles were disrupted by resuspending the pellets in 200 μl of lysis buffer (4 M guanidine thiocyanate, 0.1 M Tris HCl [pH 8.0], 0.5% sodium lauryl sarcosine, 1% dithiothreitol). RNA was extracted from viral lysates by using oligo(dT) linked to magnetic beads (Dynal, Oslo, Norway). Reverse transcription was performed with Superscript III (Invitrogen) at 50 degrees for 1 hour using primer 1.
From the resultant cDNA either POL or RHIN sequences were amplified using the Advantage High Fidelity PCR kit (BD Biosciences; Clontech). POL amplification products are made using forward Primer 3 containing an ApaI site and reverse Primer 4 containing a Xho 1 site. RHIN amplification products are made using forward Primer 2 containing a PINA1 site and reverse Primer 4 containing a Xho 1 site.
A retroviral vector designed to measure antiretroviral drug susceptibility was constructed by using an infectious molecular clone of HIV-1. The vector, referred to herein as an indicator gene viral vector (IGVV), is replication defective and contains a luciferase expression cassette inserted within a deleted region of the envelope (env) gene. The IGVV is described in U.S. Pat. No. 5,837,464 (International Publication Number WO 97/27319) which is hereby incorporated by reference in its entirety. […]

[2] = system: HIV mutants comprising site-directed mutations in integrase; assay: Anti-HIV drug susceptibility assay (luciferase test vectors, 293 cells), site-directed integrase mutants; details: FIG. 2
From the text: A retroviral vector designed to measure antiretroviral drug susceptibility was constructed by using an infectious molecular clone of HIV-1. The vector, referred to herein as an indicator gene viral vector (IGVV), is replication defective and contains a luciferase expression cassette inserted within a deleted region of the envelope (env) gene. The IGVV is described in U.S. Pat. No. 5,837,464 (International Publication Number WO 97/27319) which is hereby incorporated by reference in its entirety. This retroviral vector was further modified to allow insertion of either the entire pol gene (POL) or the portion of pol encoding amino acids 319-440 of reverse transcriptase, the RNase H portion of reverse transcriptase, and integrase (RHIN) by engineering an Xho1 restriction enzyme recognition site into vif. Prior to doing this, an Xho 1 site in nef was deleted. Test vectors (TVs) were constructed by incorporating amplified POL or RHIN into the IGVV by using ApaI and Xho1 or PinAI and Xho1 restriction sites respectively. TVs were prepared as libraries (pools) in order to capture and preserve the pol or RHN sequence heterogeneity of the virus in the patient. […]
Susceptibility tests were carried out with the TV libraries by using viral particles comprising the RTV libraries to infect a host cell in which the expression of the indicator gene is measured. The amount of indicator gene (luciferase) activity detected in infected cells is used as a direct measure of “infectivity,” i.e., the ability of the virus to complete a single round of replication. Thus, drug resistance or sensitivity can be determined by plotting the amount of luciferase activity produced by patient derived viruses in the presence of varying concentrations of the antiviral drug. By identifying the concentration of drug at which luciferase activity is half-maximum, the IC50 of the virus from which patient-derived segment(s) were obtained for the antiretroviral agent can be determined. […]

[3] = system: HIV isolated from treatment-naïve patients (POL segment); assay: Anti-HIV drug susceptibility assay (luciferase test vectors, 293 cells), patient-derived POL segment; details: 30 clinical isolates from treatment-naïve patients, FIG. 5
From the text: as §1
From the resultant cDNA either POL or RHIN sequences were amplified using the Advantage High Fidelity PCR kit (BD Biosciences; Clontech). POL amplification products are made using forward Primer 3 containing an ApaI site and reverse Primer 4 containing a Xho 1 site. […]

[4] = 30 clinical isolates from treatment-naïve patients, RHIN segment, FIG. 5

O=C(NCc1ccc(F)cc1)c1nc(N2CCCCS2(=O)=O)c2cccnc2c1O [L-870,810]
mean fold change (FC) in IC50 [1, 4]: 0.86
median fold change (FC) in IC50 [1, 4]: 0.82
mean fold change (FC) in IC50 relative to HIV strain IIIb ([1]; RHIN sequences from 45 treatment-naïve patient viruses, FIG. 4): 0.83
susceptibility (IC50 relative to HIV strain IIIB) ([2]; site-directed integrase mutant N155S): reduced susceptibility
susceptibility (IC50 relative to HIV strain IIIB) ([2]; site-directed integrase mutant V72I/F121Y/T125K): reduced susceptibility
susceptibility (IC50 relative to HIV strain IIIB) ([2]; site-directed integrase mutant): reduced susceptibility
mean fold change (FC) in IC50 [3]: 0.85
median fold change (FC) in IC50 [3]: 0.85
